Laboratory results taken from patent US8815935B2, “Inhibitors of protein prenyltransferases” (The Regents of the University of California, priority 2008, dated 2014).
Entries after “also recorded” stand apart in the source; their conditions may differ. Like-named read-outs stand apart in the source and are kept apart here.

Assays:
RabGGTase = target: T1, RabGGTase (Rattus norvegicus, UniProt Q08602+Q08603); test: In vitro RabGGTase (GGTase-II) assay with REP-1; format: biochemical
T1 construct: purchased JENA BIOSCIENCE
T1 sequence (Q08602 1-567): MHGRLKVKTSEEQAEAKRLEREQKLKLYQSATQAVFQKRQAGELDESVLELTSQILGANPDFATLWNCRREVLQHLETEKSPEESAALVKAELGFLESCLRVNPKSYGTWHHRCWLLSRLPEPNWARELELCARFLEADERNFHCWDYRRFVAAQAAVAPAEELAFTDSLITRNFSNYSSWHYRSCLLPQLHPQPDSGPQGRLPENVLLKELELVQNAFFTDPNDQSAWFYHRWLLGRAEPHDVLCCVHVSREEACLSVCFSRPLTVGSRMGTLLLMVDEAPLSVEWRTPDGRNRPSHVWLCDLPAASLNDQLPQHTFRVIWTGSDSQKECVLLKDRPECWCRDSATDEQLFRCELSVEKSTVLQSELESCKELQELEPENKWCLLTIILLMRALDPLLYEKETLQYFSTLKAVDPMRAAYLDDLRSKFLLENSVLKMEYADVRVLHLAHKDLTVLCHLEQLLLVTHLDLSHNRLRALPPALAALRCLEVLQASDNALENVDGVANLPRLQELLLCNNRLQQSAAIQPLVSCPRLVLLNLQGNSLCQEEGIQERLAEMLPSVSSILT
T1 sequence (Q08603 1-331): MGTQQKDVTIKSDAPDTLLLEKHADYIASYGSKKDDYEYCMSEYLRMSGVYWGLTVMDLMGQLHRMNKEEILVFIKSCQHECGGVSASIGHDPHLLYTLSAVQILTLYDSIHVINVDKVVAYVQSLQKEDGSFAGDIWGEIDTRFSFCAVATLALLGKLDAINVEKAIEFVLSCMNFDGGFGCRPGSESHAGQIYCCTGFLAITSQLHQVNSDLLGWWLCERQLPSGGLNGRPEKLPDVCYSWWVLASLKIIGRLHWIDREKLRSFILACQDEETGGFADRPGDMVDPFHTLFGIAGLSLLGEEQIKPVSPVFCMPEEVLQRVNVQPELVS
Procedure: The GGTase-I assay was carried out using RhoA as a substrate protein, GGTase-I (JENA Bioscience) and [3H]geranylgeranyl pyrophosphate. Incubation was for 30 min at 37° C. GGTase-II (or RabGGTase) assay was carried out using YPTI as a substrate protein, GGTase-II (Calbiochem, San Diego, Calif.) plus REP1 (Calbiochem) and [3H]geranylgeranyl pyrophosphate. Incubation was for 30 min at 37° C. FIGS. 20D-20F show the three dimensional structure of GGTase I (D), FTsse (E) and GGTase II (F) which can be obtained from X-ray diffraction studies of protein crystals.
For RabGGTase assays, the reaction contained the following components in 20 μl; 0.625 μl of [^3H]-GGPP (0.7 μM), 25 nM RabGGTase, 0.6 μM REP-1, 0.6 μM purified Rab7 or Ypt1 protein, 40 mM HEPES (pH 7.5), 150 mM NaCl, 5 mM DTT, 3 mM MgCl2 and 0.3% CHAPS. Reactions were carried out for 20 min at 37° C. and the products were analyzed as described above for the GGTase-I reaction. Graphing and Michaelis-Menten analysis were performed using Prism version5 (GraphPad, San Diego Calif.).

K562 cells = test: K562 cell growth inhibition; format: cell-based, human; settings: 72 hours
In short: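 Human erythroleukemia K562 cells exposed to compound for 72 hours. Cell number measured with CCK-8 and viability expressed relative to the DMSO control.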

GGTase-I = target: T2, GGTase-I (Rattus norvegicus, UniProt P53610+Q04631); test: In vitro GGTase-I enzyme assay (IC50, kinetics); format: biochemical; settings: for IC50: read-out: In vitro (enzyme assay) IC50, GGTase I
T2 construct: purchased JENA BIOSCIENCE
In short: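 Rat GGTase-I (50 nM) with 0.5 μM [3H]-GGPP and 2 μM MBP-RhoA in Tris-HCl pH 7.5, MgCl2, ZnCl2, DTT, 2.5% DMSO, 10 min at 30 °C; radiolabel incorporation by TCA filter binding and scintillation. Kinetics: 5 min reactions varying GGPP or RhoA at fixed other components.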

inhibition of RabGGTase (RabGGTase; even at 50,000 nM)	specificity among GGTase-I, FTase and GGTase-II (GGTase-I; FIGS. 20A-20C, varying concentrations)	Ki (GGTase-I; Michaelis-Menten analysis)	IC50 (GGTase-I; Tables 5, 14)	inhibition of RabGGTase activity (RabGGTase; concentration increased to 100,000 nM)	IC50 (K562 cells; Homo sapiens, K562, FIG. 36A, read-out: IC50, inhibition of proliferation of K562 cells)	IC50 (GGTase-I; Tables 3, 5, 7)	SMILES	inhibition of proliferation of K562 cells (K562 cells; FIG. 23)	mode of GGTase-I inhibition with respect to GGPP (GGTase-I; varying GGPP, fixed RhoA)	mode of GGTase-I inhibition with respect to the protein substrate (RhoA) (GGTase-I; varying RhoA, fixed GGPP)
little inhibition	specifically inhibit GGTase I	0.187 ± 0.013 µM	0.313 µM	–	–	–	Cc1ccccc1S(=O)(=O)N1[C@@H](c2cccc(Cl)c2)C(C(=O)O)=CC[C@H]1c1ccc(Cl)cc1 [P3-E5]	inhibit the growth of the K562 cells	do not compete with GGPP; also recorded: uncompetitive inhibitors	compete with a substrate protein; also recorded: competitive inhibitors
–	–	–	–	No significant inhibition	2.2 µM	1 µM	Cc1ccccc1S(=O)(=O)N1C(c2ccc(Cl)cc2)C(C(=O)NC(Cc2ccccc2)C(N)=O)=CC1C(C)(C)C (stereo not shown) [P61-A6]	–	–	–
